Patent US20120122843A1, “Compounds and Their Use for Treatment of Amyloid Beta-Related Diseases” (ASTRAZENECA AB, priority 2010, published 2012)

How the values were obtained:
Aβ42 = Aβ42 release from HEK cells stably expressing APPswe (MSD electrochemiluminescence); type: cell-based, Human; conditions: 4-6 h incubation with test compound, Aβ42 secreted to cell medium
Description: The level of activity of the compounds on Aβ formation was tested using the following method:
Compounds were diluted in 100% DMSO and stored at […] prior to use. Human Embryonic Kidney (HEK) cell line stably expressing APP with the Swedish mutation (APPswe) were cultured using Dulbecco's Modified Eagles medium (DMEM) supplied with […] glucose, Na-pyruvate and GlutaMAX with 10% FBS, 100 U/ml penicillin-streptomycin (PEST) respectively, 1× non-essential amino acids (NEAA), […] Hepes, 100 μg/ml Zeocine. Cells at about 80% confluence were washed with PBS, detached from culture flasks using 1× Trypsin/EDTA diluted in PBS, re-suspended in cell media and plated in 384-well poly-d-lysine coated cell culture plates at about 10000-15000 cells/well, in 25 μL cell media. Optionally, cryo-preserved cells (frozen and stored at −140° C. in 90% cell media and 10% DMSO) were thawed, washed and plated as above. Next the cells were incubated for 15-24 h at 37° C. and 5% CO2, after which cell medium was changed. Fresh medium containing test compound diluted ×200 from prepared compound plate was added to the cells before further incubation for 4-6 hours at 37° C. and 5% CO2. After incubation with test compound the amount of Aβ peptides, including Aβ42, Aβ40, Aβ39, Aβ38 and Aβ37, as well as total Aβ levels, secreted to cell medium was analyzed using the electrochemiluminescence assay technology from Meso Scale Discovery (MSD), in combination with specific antibodies raised against the different Aβ peptides. Aβ42, Aβ40 and Aβ38 antibodies were purchased from MSD and Aβ37 and Aβ39 were made in house. Total Aβ was measured using a combination of 6E10 and 4G8 anti Aβ antibodies from MSD. Potential cytotoxic effects of the compounds were usually assayed by measuring the ATP content (ViaLight) from cell lysate.

Notch = assay: Release and translocation of Notch intracellular domain into the nucleus, HEK/AENotch cells (NICD immunostaining, ImageXpress); type: cell-based, Human; conditions: 3 μM Lactacystin, 4-6 h incubation, nucleus/cytosol NICD fluorescence ratio
Description: The level of activity of the compounds on release and translocation of Notch intracellular domain into the cell nucleus was tested using the following method:
Compounds were diluted in 100% DMSO and stored at […] prior to use. Human Embryonic Kidney cell line overexpressing Notchl-E-human-myc construct (referred to as HEK/AENotch) were cultured in T75 cm^2 or T225 cm^2 cell culture flasks using Dulbecco's Modified Eagles medium (DMEM) supplemented with […] glucose, Na-pyruvate and GlutaMAX with 10% FBS, 100 U/ml penicillin-streptomycin (PEST) respectively, 1× non-essential amino acids (NEAA), […] Hepes and 100 μg/ml Hygromycin. Cells at about 80% confluence were washed with PBS, detached from the flask bottom using 1× Trypsin/EDTA diluted in PBS, re-suspended in cell media and plated in 384-well plates at about 10000 cells/well, in 25 μL cell media. Optionally, cryo-preserved cells (frozen and stored at −140° C. in 90% cell media and 10% DMSO) were thawed, washed and plated as above. Next the cells were incubated for 15-24 h at 37° C. and 5% CO2, after which cell medium was replaced with fresh medium containing 3 μM Lactacystin and test compound diluted ×200 from prepared compound plate giving 0.5% final DMSO concentration, and the highest compound concentration typically 25 μM. Cells were then incubated 4-6 h with test compound before being fixed, washed and immunostained with NICD antibody (rabbit Notch 1 (C-20)). Image acquisition of cytosolic/membrane and nuclear fluorescence as well as subsequent analysis of the nucleus and cytosolic fluorescence ratio was carried out using ImageXpress. Potential cytotoxic effects of the compounds were usually assayed by analysis of nucleus area or cell number.

[1] = Homo sapiens, HEK293, HEK cells expressing APPswe

Row | IC50 (Aβ42; HEK cells expressing APPswe) [nM] | IC50 (Aβ42; [1]) [nM] | SMILES | IC50 (Notch; Homo sapiens) [nM] | IC50 (Notch) [nM]
1 | – | 5 | COc1nc(Nc2ccc3c(n2)OC(CC(F)(F)F)CN(C)C3)ccc1-c1ccnc(C)c1 (stereo not shown) [Example 8, (2-Methoxy-2′-methyl-[3,4′]bipyridinyl-6-yl)-[6-methyl-8-(2,2,2-trifluoro-ethyl)-5,6,7,8-tetrahydro-9-oxa-1,6-diaza-benzocyclohepten-2-yl]-amine] | 3250 | –
2 | – | 4 | COc1nc(Nc2ccc3c(n2)OC(CC(F)(F)F)CN(C)C3)ccc1-c1cnc(C)o1 (stereo not shown) [Example 47, N-[6-Methoxy-5-(2-methyloxazol-5-yl)-2-pyridyl]-4-methyl-2-(2,2,2-trifluoroethyl)-3,5-dihydro-2H-pyrido[3,2-f][1,4]oxazepin-8-amine] | > 25000 | –
3 | 60 | – | COc1nc(Nc2ccc3c(n2)O[C@H](c2ccc(F)cn2)CN(C)C3C)ccc1-c1cnn(C)c1 (single isomer, unassigned) [Example 50] | – | 2310
4 | – | 225 | Cc1cn(-c2ccc(Nc3cc(C)c4c(n3)OC(CC(F)(F)F)CN(C)C4)nc2)cn1 (stereo not shown) [Example 1, 4,6-Dimethyl-N-(5-(4-methyl-1H-imidazol-1-yl)pyridin-2-yl)-2-(2,2,2-trifluoroethyl)-2,3,4,5-tetrahydropyrido[3,2-f][1,4]oxazepin-8-amine] | > 50000 | –
5 | 18 | – | COc1nc(Nc2ccc3c(n2)OC(CCC(F)(F)F)CN(C)C3)ccc1-c1cnn(C)c1 (single isomer, unassigned; (-)) [Example 58, (−)-N-[6-Methoxy-5-(1-methylpyrazol-4-yl)-2-pyridyl]-4-methyl-2-(3,3,3-trifluoropropyl)-3,5-dihydro-2H-pyrido[3,2-f][1,4]oxazepin-8-amine] | – | > 25000
6 | 16 | – | COc1nc(Nc2ccc3c(n2)OC(CC(F)(F)F)CN(C)C3C)ccc1-c1cnn(C)c1 (single isomer, unassigned) [Example 34, N-(6-Methoxy-5-(1-methyl-1H-pyrazol-4-yl)pyridin-2-yl)-4,5-dimethyl-2-(2,2,2-trifluoroethyl)-2,3,4,5-tetrahydropyrido[3,2-f][1,4]oxazepin-8-amine] | – | > 25000
7 | 9 | – | COc1nc(Nc2ccc3c(n2)OC(CC(CF)CF)CN(C)C3)ccc1-n1cnc(C)c1 (single isomer, unassigned; (-)) [Example 68, (−)-[8-(3-Fluoro-2-fluoromethyl-propyl)-6-methyl-5,6,7,8-tetrahydro-9-oxa-1,6-diaza-benzocyclohepten-2-yl]-[6-methoxy-5-(4-methyl-imidazol-1-yl)-pyridin-2-yl]-amine] | – | > 25000
8 | – | 9 | COc1nc(Nc2ccc3c(n2)OC(c2ncc(C)s2)CN(C)C3)ccc1-n1cnc(C)c1 (stereo not shown) [Example 40, N-(6-Methoxy-5-(4-methyl-1H-imidazol-1-yl)pyridin-2-yl)-4-methyl-2-(5-methylthiazol-2-yl)-2,3,4,5-tetrahydropyrido[3,2-f][1,4]oxazepin-8-amine] | 3640 | –

The remaining lines, values behind:

Row | SMILES | IC50 (Aβ42; HEK cells expressing APPswe) [nM] | IC50 (Aβ42; [1]) [nM] | IC50 (Notch; Homo sapiens) [nM] | IC50 (Notch) [nM]
9 | COc1nc(Nc2ccc3c(n2)OC(c2nc(C)cs2)C(C)N(C)C3)ccc1-n1cnc(C)c1 (single isomer, unassigned; (-)) [Example 59, (−)-N-(6-Methoxy-5-(4-methyl-1H-imidazol-1-yl)pyridin-2-yl)-3,4-dimethyl-2-(4-methylthiazol-2-yl)-2,3,4,5-tetrahydropyrido[3,2-f][1,4]oxazepin-8-amine] | 7 | – | > 25000 | –
10 | COc1nc(Nc2ccc3c(n2)OC(CC(F)(F)F)CN(C)C3)ccc1-c1cc(C)ncn1 (stereo not shown) [Example 7, [6-Methoxy-5-(6-methyl-pyrimidin-4-yl)-pyridin-2-yl]-[6-methyl-8-(2,2,2-trifluoro-ethyl)-5,6,7,8-tetrahydro-9-oxa-1,6-diaza-benzocyclohepten-2-yl]-amine] | – | 135 | > 25000 | –
11 | COc1nc(Nc2ccc3c(n2)OC(c2nc(C)cs2)C(C)N(C)C3)ccc1-n1cnc(C)c1 (single isomer, unassigned; (+)) [Example 60, (+)-N-(6-Methoxy-5-(4-methyl-1H-imidazol-1-yl)pyridin-2-yl)-3,4-dimethyl-2-(4-methylthiazol-2-yl)-2,3,4,5-tetrahydropyrido[3,2-f][1,4]oxazepin-8-amine] | 17 | – | – | > 25000
12 | COc1nc(Nc2ccc3c(n2)O[C@H](c2ccc(F)cn2)CN(C)C3C)ccc1-n1cnc(C)c1 (single isomer, unassigned; (-)) [Example 53] | 11 | – | – | > 7900
13 | COc1nc(Nc2cc(C)c3c(n2)OC(CC(F)(F)F)CN(C)C3)ccc1-c1cnn(C)c1 (stereo not shown) [Example 2, N-(6-Methoxy-5-(1-methyl-1H-pyrazol-4-yl)pyridin-2-yl)-4,6-dimethyl-2-(2,2,2-trifluoroethyl)-2,3,4,5-tetrahydropyrido[3,2-f][1,4]oxazepin-8-amine] | – | 23 | 1140 | –
14 | COc1nc(Nc2cc(C)c3c(n2)OC(c2nc(C)cs2)CN(C)C3)ccc1-c1cnn(C)c1 (single isomer, unassigned) [Example 22, N-(6-Methoxy-5-(1-methyl-1H-pyrazol-4-yl)pyridin-2-yl)-4,6-dimethyl-2-(4-methylthiazol-2-yl)-2,3,4,5-tetrahydropyrido[3,2-f][1,4]oxazepin-8-amine] | 10 | – | 1680 | –
15 | COc1nc(Nc2ccc3c(n2)OC(CC(F)(F)F)CN(C)C3C)ccc1-c1cnn(C)c1 (single isomer, unassigned) [Example 35, N-(6-Methoxy-5-(1-methyl-1H-pyrazol-4-yl)pyridin-2-yl)-4,5-dimethyl-2-(2,2,2-trifluoroethyl)-2,3,4,5-tetrahydropyrido[3,2-f][1,4]oxazepin-8-amine] | 12 | – | – | > 25000
16 | COc1nc(Nc2ccc3c(n2)OC(CC(F)(F)F)CN(C)C3C)ccc1-c1cnn(C)c1 (single isomer, unassigned) [Example 36, N-(6-Methoxy-5-(1-methyl-1H-pyrazol-4-yl)pyridin-2-yl)-4,5-dimethyl-2-(2,2,2-trifluoroethyl)-2,3,4,5-tetrahydropyrido[3,2-f][1,4]oxazepin-8-amine] | 12 | – | – | > 25000
17 | COc1nc(Nc2ccc3c(n2)OC(c2nc(C)cs2)CN(C)C3)ccc1-c1cnn(C)c1 (stereo not shown) [Example 9, N-(6-Methoxy-5-(1-methyl-1H-pyrazol-4-yl)pyridin-2-yl)-4-methyl-2-(4-methylthiazol-2-yl)-2,3,4,5-tetrahydropyrido[3,2-f][1,4]oxazepin-8-amine] | – | 19 | > 15800 | –
18 | COc1nc(Nc2ccc3c(n2)OC(c2nc(C)cs2)CN(C)C3)ccc1-c1cnn(C)c1 (single isomer, unassigned; (-)) [Example 11, (−)-N-(6-Methoxy-5-(1-methyl-1H-pyrazol-4-yl)pyridin-2-yl)-4-methyl-2-(4-methylthiazol-2-yl)-2,3,4,5-tetrahydropyrido[3,2-f][1,4]oxazepin-8-amine] | 14 | – | 1440 | –
19 | COc1nc(Nc2ccc3c(n2)OC(C2CC2)CN(C)C3C)ccc1-c1cnn(C)c1 (single isomer, unassigned) [Example 17, 2-Cyclopropyl-N-(6-methoxy-5-(1-methyl-1H-pyrazol-4-yl)pyridin-2-yl)-4,5-dimethyl-2,3,4,5-tetrahydropyrido[3,2-f][1,4]oxazepin-8-amine] | 14 | – | > 7900 | –
20 | COc1nc(Nc2ccc3c(n2)OC(c2ncc(C)s2)CN(C)C3)ccc1-n1cnc(C)c1 (single isomer, unassigned; (+)) [Example 66, (+)-N-(6-Methoxy-5-(4-methyl-1H-imidazol-1-yl)pyridin-2-yl)-4-methyl-2-(5-methylthiazol-2-yl)-2,3,4,5-tetrahydropyrido[3,2-f][1,4]oxazepin-8-amine] | 38 | – | – | > 25000
